Results reported in patent US20160122268A1, “PROCESS FOR SIMULTANEOUS EXTRACTION AND SEPARATION OF ESTERIFIED AND UNESTERIFIED MONOHYDROXYCAROTENOIDS” (UNIVERSITY OF MARYLAND, COLLEGE PARK, priority 2013, published 2016).

Experiment: Solubility in hydrocarbon solvents (pentane or hexane), observed in Soxhlet extraction
Format: physicochemical
Details: boiling pentane or hexane
From the text: In an alternative process, Soxhlet extraction of mono- and dihydroxycarotenoids can also be carried out to separate these carotenoids. As mentioned earlier, esterified forms of lutein and zeaxanthin are well solubilized in hydrocarbon solvents such as n-hexane and n-pentane, whereas their unesterified parent compounds, […], show a remarkable difference in their solubility behavior and remain insoluble. In fact, […] are considerably more soluble in n-pentane or n-hexane than lutein and zeaxanthin.
Similarly, a mixture of zeaxanthin and β-cryptoxanthin can be separated by Soxhlet extraction with n-pentane or n-hexane due to their differential solubility in hydrocarbon solvents.
100 mg of 1:1 mixture of (3R)-β-cryptoxanthin (13) and (3R,3′R)-zeaxanthin (5) was subjected to Soxhlet extraction and these unesterified carotenoids were extracted with boiling pentane (b.p.=36° C.) or hexane (b.p.=69° C.). […] After 4 hours, the composition of the extract was: (3R)-β-cryptoxanthin (13) (85%) and (3R,3′R)-zeaxanthin (5) (15%). In a subsequent Soxhlet extraction with pentane or hexane, (3R)-β-cryptoxanthin (13) was obtained in 98% purity.

SMILES	solubility in hydrocarbon solvents
CC1=C(/C=C/C(C)=C/C=C/C(C)=C/C=C/C=C(C)/C=C/C=C(C)/C=C/C2=C(C)C[C@@H](O)CC2(C)C)C(C)(C)C[C@H](O)C1 [compound 5, (3R,3′R)-zeaxanthin]	only sparingly soluble
CC(C=CC=C(C)C=CC1=C(C)CC(O)CC1(C)C)=CC=CC=C(C)C=CC=C(C)C=CC1C(C)=CCCC1(C)C [compound 9, (3R,6′R)-α-cryptoxanthin]	much greater solubility than lutein
CC1=C(/C=C/C(C)=C/C=C/C(C)=C/C=C/C=C(C)/C=C/C=C(C)/C=C/C2=C(C)C[C@@H](O)CC2(C)C)C(C)(C)CCC1 [compound 13, (3R)-β-cryptoxanthin]	significantly better solubility
